Patent publication US20250297292A1, “ENZYMATIC REDUCTION OR REDUCTIVE AMINATION OF ARYL AND HETEROCYCLIC CARBOXYLIC ACIDS AND ALDEHYDES” (University of Delaware Newark, priority 2022, published 2025)

Tests used:
[1] = tested on: CAR from Segniliparus rotundus (srCAR); experiment: CAR initial rate by NADPH oxidation (srCAR on PET-derived carboxylates); type: biochemical; settings: average activity of srCAR on TPA, triplicate average; used to normalize the heatmap
Source text: Using a sequence similarity network, CARs were sampled across distinct protein clusters to probe for activity on TPA. Of 22 cloned CARs, 17 expressed, with 9 of those CARs being unreported in literature (FIG. 9A). Anti-His6 Western blot of cell lysate from E. coli BL21 (DE3) harboring different CARs is shown by phylogeny (FIG. 9B). CARS were expressed under optimized conditions. The Western blot is comprised of two separate blots, which are delineated by the dashed lines and contain their own protein ladders. The first lane of the Western blot is a control lane consisting of lysate from E. coli BL21 (DE3) with no CAR plasmid. A band corresponding to the putative CAR from Streptomyces noursei was not detected during Western blot analysis but was confirmed in a separate experiment. The substrate specificity of CAR was evaluated on TPA, 4FBA, MHET and mmTPA, which are carboxylates related to PET depolymerization (FIG. 9C). In addition, pAMBA was tested, as it is a potential reaction intermediate in our proposed multienzyme cascade for the formation of amines. Under mild aqueous conditions, the conversion of CAR was tracked on TPA, 4FBA, MHET, mmTPA, pAMBA and the model aromatic acid, benzoic acid (FIG. 9D). Here, the oxidation of NADPH is measured as a proxy to aldehyde formation, as depletion of NADPH is linked to the consumption of substrate. […]

[2] = tested on: srCAR; experiment: Time course of enzymatic reduction of PET-derived carboxylates by srCAR with co-factor regeneration; type: biochemical, Segniliparus rotundus; settings: 5 mM substrate, 3-enzyme NADPH and ATP regeneration system, N=3
Description: Endpoint in vitro assays showing the conversion of 5 mM TPA to TPAL after 24 h, with and without co-factor regenerating enzymes. […] Time course analysis of the enzymatic reduction of (i) 5 mM TPA, (ii) 5 mM 4FBA, (iii) 5 mM mmTPA and (iv) 5 mM MHET by CAR (FIG. 10B) All experiments included a 3-enzyme NADPH and ATP regeneration system. […] Sample size is N=3 and all data are shown as the mean±standard deviation. Error bars for certain points of the bioconversion of mmTPA to mm4FBA are smaller than the height of the symbol.

[3] = tested on: cvTA; experiment: Endpoint bioconversion of PET-derived aldehydes to amines by cvTA; type: biochemical, Chromobacterium violaceum; settings: 10 mM substrate, 1.5 μM cvTA, 40 mM iPr-NH2, 24 h at 30° C., N=3
Description: cvTA reactions for the conversion of 4FBA and TPAL to their corresponding amine (FIG. 8A) Endpoint bioconversion of 10 mM 4FBA to pAMBA (FIG. 8B) and 10 mM TPAL to pXYL (FIG. 8C) by 1.5 μM cvTA in 100 mM HEPES pH 7.5, 400 μM PLP with 40 mM iPr-NH2 as the amine donor. […] Sample size is N=3 and all data are shown as the mean±standard deviation.

[4] = biological target: lipase from Candida antarctica (CALB) (Moesziomyces antarcticus, UniProt P41365); experiment: De-esterification of PET-derived ester aldehydes by lipase CALB; type: biochemical; settings: 1 mM substrate, 24 h, 30° C.
Sequence of lipase from Candida antarctica (CALB) (P41365 26-342): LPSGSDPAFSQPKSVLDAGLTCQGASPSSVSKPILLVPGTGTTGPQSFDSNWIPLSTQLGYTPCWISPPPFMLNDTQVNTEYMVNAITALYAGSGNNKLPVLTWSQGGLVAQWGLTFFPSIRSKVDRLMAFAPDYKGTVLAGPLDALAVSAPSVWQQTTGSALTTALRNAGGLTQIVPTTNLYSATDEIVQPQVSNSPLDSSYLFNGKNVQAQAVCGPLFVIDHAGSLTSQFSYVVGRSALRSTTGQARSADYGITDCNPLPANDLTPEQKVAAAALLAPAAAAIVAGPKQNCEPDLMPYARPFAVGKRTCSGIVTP

Structure (SMILES)	over-reduction of aldehyde product to alcohol during reduction [2]	endpoint bioconversion of aldehyde to amine [3]	de-esterification by CALB [4]	also measured
O=C(O)c1ccc(C(=O)O)cc1 [TPA, terephthalic acid]	over-reduction of aldehydes to alcohols			average initial rate (oxidation of NADPH as proxy to aldehyde formation) [1]: 4.80 mM NADPHox·h^−1·μMCAR^−1
O=Cc1ccc(C=O)cc1 [TPAL, terephthalaldehyde]		proceeds to completion		
COC(=O)c1ccc(C(=O)O)cc1 [mmTPA, monomethyl terephthalate]	decline in concentration over time to the purported alcohol product			
O=Cc1ccc(C(=O)OCCO)cc1 [MHE-4FBA, 2-hydroxyethyl 4-formylbenzoate]			completely de-esterified	
O=Cc1ccc(C(=O)O)cc1 [4FBA, 4-formylbenzoic acid]	over-reduction of aldehydes to alcohols	proceeds to completion		
COC(=O)c1ccc(C=O)cc1 [mm4FBA, methyl 4-formylbenzoate]			completely de-esterified	
